The target in one assay is T1, β-lactamase TEM1 (Escherichia coli, UniProt P62593).
T1 construct: The β-lactamases are isolated from bacterial strains which are resistant to penicillins and cephalosporins; endogenous in cells; host or cells: E. coli 250HT21 (natural producer; French-press lysate, 100,000 g supernatant)
Kind of assay: Inhibition of isolated β-lactamase Tem-1 (Nitrocefin hydrolysis). The assay is classed as biochemical, E.coli 250HT21. As to conditions: 100 μM Nitrocefin, 50 mM sodium phosphate buffer pH7.0, 37° C. Here is the method:
(§1) A. Preparation of the β-lactamases Tem-1 and P99
(§2) The β-lactamases are isolated from bacterial strains which are resistant to penicillins and cephalosporins (Tem1 and P99 are produced by E.coli 250HT21 and E.Cloacae 293HT6 respectively).
(§3) The bacteria are cultured at 37° C. in heart-brain culture at 37 g/l (DIFCO). They are harvested at the end of the exponential phase, cooled down and centrifuged. The bacterial pellets are taken up in sodium phosphate buffer 50 mM, pH 7.0 and centrifuged again. The bacteria are taken up in two volumes of the same buffer and lyzed using a French-Press maintained at 4° C. After centrifugation for 1 hour at 100,000 g, at 4° C., the supernatants containing the soluble fraction of the bacterial extracts are recovered and frozen at −80° C.
(§4) The method uses Nitrocefin (OXOID), cephalosporin chromogene as substrate, of which the product hydrolyzed by the B-lactamases is red and absorbs at 485 nm. Beta-lactamase activity is determined kinetically by measurement of the absorbance variation at 485 nm resulting from the hydrolysis of the substrate using a plate spectrophotometer (Spectra Max More Molecular Devices). The experiments are carried out at 37° C. The quantity of enzyme was normalized and the measurements are carried out at initial speed.
(§5) Two measurements were carried out, without preincubation and with preincubation of the enzyme and inhibitor (5 mn), in order to test the irreversibility of the reaction. The products are tested at 6 or 8 concentrations in duplicate. The reaction mixture contains 100 μM of Nitrocefin and 50 mM sodium phosphate buffer pH7.0.
(§6) The hydrolysis speeds are measured with and without inhibitor. The concentration of inhibitor which inhibits by 50% the hydrolysis reaction of Nitrocefin by the enzyme (CI50) is determined. The data is processed using GraFit software (Erathycus Software).

Another assay concerns the target T2, β-lactamase P99 (Enterobacter cloacae, UniProt P05364).
T2 construct: The β-lactamases are isolated from bacterial strains which are resistant to penicillins and cephalosporins; endogenous in cells; host or cells: Enterobacter cloacae 293HT6 (natural producer; French-press lysate, 100,000 g supernatant)
Kind of assay: biochemical. As to conditions: 100 μM Nitrocefin, 50 mM sodium phosphate buffer pH7.0, 37° C.; read-out: IC50 nM/P99. Here is the method:
as §1, §2, §3, §4, §5, §6

Counter-ions that a name gives are not always drawn.

T1 sequence (P62593 24-286 limits assumed): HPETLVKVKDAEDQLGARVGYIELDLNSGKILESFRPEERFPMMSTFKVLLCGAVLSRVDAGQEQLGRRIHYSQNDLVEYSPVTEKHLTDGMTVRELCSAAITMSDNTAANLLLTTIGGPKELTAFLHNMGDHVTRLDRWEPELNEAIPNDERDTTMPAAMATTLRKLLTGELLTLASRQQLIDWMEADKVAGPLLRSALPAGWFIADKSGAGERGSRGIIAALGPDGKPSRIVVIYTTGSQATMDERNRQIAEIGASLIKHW
T2 sequence (P05364 21-381): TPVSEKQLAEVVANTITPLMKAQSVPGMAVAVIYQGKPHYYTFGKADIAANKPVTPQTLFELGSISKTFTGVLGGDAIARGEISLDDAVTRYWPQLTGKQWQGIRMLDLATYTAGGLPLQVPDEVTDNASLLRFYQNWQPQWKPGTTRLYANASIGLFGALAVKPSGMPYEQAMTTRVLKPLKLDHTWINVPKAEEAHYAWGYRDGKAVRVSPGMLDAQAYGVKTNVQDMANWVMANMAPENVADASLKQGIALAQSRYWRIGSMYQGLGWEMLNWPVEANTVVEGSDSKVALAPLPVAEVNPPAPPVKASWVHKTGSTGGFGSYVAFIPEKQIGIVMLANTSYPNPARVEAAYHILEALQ

As to “6-benzoyl—N—[methyl(phenylmethyl)]-7-oxo-1,6-diazabicyclo[3.2.1]octane-2-carboxamide [Example 29e]”, the IC50 came to 4200 nM against β-lactamase TEM1 and 6300 nM at β-lactamase P99.

Turning to `O=C(O)CC[C@@H]1CCN2C[C@H]1OC2=O` (relative stereo) [Example 1a, cis-7-oxo-6-oxa-1-azabicyclo[3.2.1]octane-4-propanoic acid], the values for the IC50 at β-lactamase TEM1 and at β-lactamase P99 were 700 nM and greater than 10000 nM, respectively. In the case of `O=C(C[C@@H]1CCN2C[C@@H]1OC2=O)OC(c1ccccc1)c1ccccc1` (relative stereo) [Example 2, Trans diphenylmethyl 7-oxo-6-oxa-1-azabicyclo[3.2.1]octan-4-acetate], on β-lactamase TEM1, the IC50 was 462 nM. Still for that read-out and setting: next, `O=C(O)C[C@@H]1CCN2C[C@@H]1OC2=O` (relative stereo) [Example 2a, trans-7-oxo-6-oxa-1-azabicyclo[3.2.1]octan-4-acetic acid]: 6730 nM. Turning to `O=C(C[C@@H]1CCN2C[C@H]1OC2=O)OC(c1ccccc1)c1ccccc1` (relative stereo) [Example 3, cis diphenylmethyl 7-oxo-6-oxa-1-azabicyclo[3.2.1]octan-4-acetate], the results for the IC50 on β-lactamase TEM1 and on β-lactamase P99 were 590 nM and 9800 nM, respectively. Turning to `O=C(O)C[C@@H]1CCN2C[C@H]1OC2=O` (relative stereo) [Example 3a, cis-7-oxo-6-oxa-1-azabicyclo[3.2.1]octan-4-acetic acid], the IC50 against β-lactamase TEM1 stood at 4400 nM. Same read-out and setting: next, `COC(=O)C[C@@H]1CCN2C[C@H]1OC2=O` (relative stereo) [Example 3b, cis methyl 7-oxo-6-oxa-1-azabicyclo[3.2.1]octan-4-acetate]: 2010 nM.

As for `N#CC[C@@H]1CCN2C[C@H]1OC2=O` (relative stereo) [Example 4, cis-7-oxo-6-oxa-1-azabicyclo[3.2.1]octan-4-acetonitrile], on β-lactamase TEM1, the IC50 came to 2710 nM. For `O=C(OCc1ccccc1)[C@H]1C[C@@H]2CN1C(=O)N2C(=O)c1ccccc1` (relative stereo) [Example 7a, trans phenylmethyl 3-benzoyl-2-oxo-1,3-diazabicyclo[2.2.1]heptane-6-carboxylate], the IC50 at β-lactamase TEM1 was found to be 55 nM; at β-lactamase P99, 17 nM. Take `O=C(OCc1ccccc1)[C@H]1C[C@@H]2CN1C(=O)N2S(=O)(=O)c1ccccc1` (relative stereo) [Example 8, trans phenylmethyl 2-oxo-3-(phenylsulphonyl)-1,3-diazabicyclo[2.2.1]heptane-6-carboxylate]: the IC50 against β-lactamase TEM1 was 1400 nM; on β-lactamase P99 it was 62 nM. `C[C@@]12C[C@H](C(=O)OCc3ccccc3)N(C1)C(=O)N2C(=O)c1ccccc1` (relative stereo) [Example 9, trans phenylmethyl 3-benzoyl-4-methyl-2-oxo-1,3-diazabicyclo[2.2.1]heptane-6-carboxylate]: the IC50 against β-lactamase TEM1 was determined as 8500 nM; on β-lactamase P99, 630 nM.

Consider `O=C(OCc1ccccc1)[C@@H]1C[C@@H]2CN1C(=O)N2OS(=O)(=O)O` (relative stereo) [Example 10, 1-propenyltriphenylphosphonium salt of trans phenylmethyl 2-oxo-3-(sulphooxy)-1,3-diazabicyclo[2.2.1]heptane-6-carboxylate], for which the IC50 against β-lactamase TEM1 turned out to be 0.26 nM; at β-lactamase P99, 1.5 nM.

For the compound `COC(=O)[C@@H]1CC[C@@H]2CN1C(=O)O2` (relative stereo) [Example 26c, trans methyl 7-oxo-6-oxa-1-azabicyclo[3.2.1]octane-2-carboxylate], the IC50 against β-lactamase TEM1 worked out at 1100 nM; on β-lactamase P99, 7000 nM.

For the compound `O=C(NCc1ccccc1)[C@@H]1CC[C@@H]2CN1C(=O)N2C(=O)c1ccccc1` (relative stereo) [Example 29d, trans-6-benzoyl-7-oxo-N-(phenylmethyl)-1,6-diazabicyclo[3.2.1]octane-2-carboxamide], the IC50 turned out to be 9500 nM at β-lactamase TEM1 and 2000 nM on β-lactamase P99. The compound `O=C(c1ccccc1)N1C(=O)N2CCC1C2` (centres unmarked) [Example 5, 3-benzoyl-1,3-diazabicyclo[2.2.1]heptan-2-one] yielded an IC50 against β-lactamase TEM1 of 1010 nM. Consider `O=C(c1ccccc1)N1C(=O)N2CCCC1C2` (centres unmarked) [Example 14, 6-benzoyl-1,6-diazabicyclo[3.2.1]octan-7-one], for which, at β-lactamase TEM1, the IC50 worked out at 6400 nM. For `Cc1ccc(S(=O)(=O)ON2C(=O)N3CCCC2C3)cc1` (centres unmarked) [Example 19e, 6-[[(4-methylphenyl)sulphonyl]oxy]-1,6-diazabicyclo[3.2.1]octan-7-one], on β-lactamase TEM1, the IC50 is 11 nM. In turn, `CS(=O)(=O)ON1C(=O)N2CCCC1C2` (centres unmarked) [Example 19f, 6-[(methylsulphonyl)oxy]-1,6-diazabicyclo[3.2.1]octan-7-one] gave an IC50 against β-lactamase TEM1 of 110 nM. Take `O=C1N2CCCC(C2)N1OS(=O)(=O)c1ccc([N+](=O)[O-])cc1` (centres unmarked) [Example 19g]: the IC50 against β-lactamase TEM1 is 29 nM. As to `O=C1OC2C=CCN1C2` (centres unmarked) [Example 22, 6-oxa-1-azabicyclo[3.2.1]oct-3-en-7-one], at β-lactamase TEM1, the IC50 worked out at 5100 nM. The same measure, in the same setting: next, `O=C(O)C1CCC2CN1C(=O)O2` (stereo not drawn) [Example 26b, trans-7-oxo-6-oxa-1-azabicyclo[3.2.1.]octane-2 carboxylic acid]: 4900 nM. With `O=C(OCc1ccccc1)C1CCC2CN1C(=O)N2OS(=O)(=O)O` (stereo not drawn) [Example 28b, Sodium salt of trans phenylmethyl 7-oxo-6-(sulphooxy)-1,6-diazabicyclo[3.2.1]octane-2-carboxylate], the values for the IC50 against β-lactamase TEM1 and at β-lactamase P99 were 9.5 nM and 12 nM, respectively. For `O=C(OCc1ccccc1)C1CCC2CN1C(=O)N2OS(=O)(=O)c1cccs1` (stereo not drawn) [Example 28d, trans pheylmethyl 7-oxo-6-[(2-thienylsulphonyl)oxy]-1,6-diazabicyclo[3.2.1]octane-2-carboxylate] the same measures were 1.3 nM and 390 nM. For `O=C(O)C1CCC2CN1C(=O)N2C(=O)c1ccccc1` (stereo not drawn) [Example 29b, trans-6-benzoyl-7-oxo-1,6-iazabicyclo[3.2.1]octane-2-carboxylic acid] the same measures were 460 nM and 4200 nM. Consider `O=C(c1ccccc1)N1C(=O)N2CC1CCC2CO` (centres unmarked) [Example 29f, 6-benzoyl-2-(hydroxymethyl)-1,6-diazabicyclo[3.2.1]octan-7-one], for which, on β-lactamase TEM1, the IC50 turned out to be 5200 nM. In turn, `C=CCOC(=O)N1C(=O)N2CC1CCC2C(=O)OCc1ccc([N+](=O)[O-])cc1` (stereo not drawn) [Example 31, trans (4-nitrophenyl)methyl and 2-propenyl 7-oxo-1,6-diazabicyclo[3.2.1]octane-2,6-dicarboxylate] displayed an IC50 against β-lactamase TEM1 of 5700 nM. On to `COC1=CC2CN(C1)C(=O)N2OS(=O)(=O)O` (centres unmarked) [Example 52, Sodium salt of 3-methoxy-6-(sulphooxy)-1,6-diazabicyclo[3.2.1]oct-3-in-7-one], for which the IC50 is 11 nM at β-lactamase TEM1 and 4600 nM at β-lactamase P99. For `O=C1N2CC=CC(C2)N1OS(=O)(=O)O` (centres unmarked) [Example 53, Sodium salt of 6-(sulphooxy)-1,6-diazabicyclo[3.2.1]oct-3-in-7-one] the same measures were 15 nM and 5900 nM.

`O=C1N2CCCC(C2)N1OS(=O)(=O)O` (centres unmarked) [Example 54, Sodium salt of 6-(sulphooxy)-1,6-diazabicyclo[3.2.1]octan-7-one] displayed an IC50 against β-lactamase TEM1 of 3100 nM. Same read-out and setting: next, “trans phenylmethyl 6-(2-hydroxy-2-oxoethoxy)-7-oxo-1,6-diazabicyclo[3.2.1]octane-2-carboxylate [Example 28e]”: 52 nM.

Source of the values: patent publication US7612087B2, “Heterocyclic compounds as inhibitors of beta-lactamases” (Novexel, priority 2002, dated 2009).
